Series [1] is described as follows: Apparent permeability from apical to basolateral side in MDCK cells. Particulars: dog. It counts as ADME, cell-based, Canis lupus familiaris.
A short description of series [2]: Fraction unbound in mouse plasma. The series is classed as ADME, cell-free.
Series [3] can be described thus: Kinetic solubility at pH 7.4 by high throughput assay. The series is classed as physicochemical. Particulars: buffer, read-out: Kinetic_solubility.
The target of series [4] is Serine/threonine-protein kinase PAK 1 (Homo sapiens, UniProt Q13153). The experiment in a line: Inhibition of recombinant human GST-tagged PAK1 kinase domain expressed in baculovirus expression system assessed as suppression of phosphorylation of coumarin/fluorescein-labelled FRET peptide substrate at Ser/Thr19 residues preincubated with substrate for 10 mins followed by enzyme addition measured after 60 mins by Z-Lyte assay.

Series [5] concerns the target Serine/threonine-protein kinase PAK 1/PAK 2/PAK 3 (Homo sapiens, UniProt O75914+Q13177+Q13153). Nature of the series: Inhibition of PAK1/2/3 in human EBC1 cells assessed as MEK1 phosphorylation level at Serine298 residue incubated for 2 hrs by HTRF assay. The series is classed as cell-based.
In another series the test system is Hepatocyte. The experiment in a line: Drug uptake in mouse hepatocytes measured at 30 secs relative to control. The series is classed as ADME, cell-based. Particulars: 0.5 min.
Series [6] in a line: Volume of distribution at steady state in nude mouse at 2 mg/kg, iv. The series is classed as ADME, organism-based. Particulars: in vivo, read-out: Vdss.
Series [7] in a line: Plasma clearance in nude mouse at 2 mg/kg, iv. It counts as ADME, organism-based.
A further series relates to Mus musculus. The experiment in a line: Unbound clearance in nude mouse at 2 mg/kg, iv. It counts as ADME, organism-based. Particulars: in vivo.
A short description of series [8]: Half life in nude mouse at 2 mg/kg, iv. The series is classed as ADME, organism-based. Particulars: in vivo.
The test system of series [9] is MDR1 (human). Nature of the series: Apparent permeability from apical to basolateral side in MDCK cells expressing human MDR1. Particulars: dog. It counts as ADME, cell-based, Canis lupus familiaris.
In series [10] the test system is MDR1 (human). The experiment in a line: Apparent permeability from basolateral to apical side in MDCK cells expressing human MDR1. The series is classed as ADME, cell-based, Canis lupus familiaris. Particulars: dog.
In series [11] the test system is MDR1 (human). Nature of the series: Efflux ratio of apparent permeability from basolateral to apical side over apical to basolateral side in MDCK cells expressing human MDR1. Particulars: dog. The series is classed as ADME, cell-based, Canis lupus familiaris.
Series [12] is described as follows: Lipophilicity, logD of compound at pH 7.4. The series is classed as physicochemical. Particulars: buffer.
Series [13] can be described thus: Cmax in nude mouse at 25 mg/kg, po. It counts as ADME, organism-based. On the set-up: dose 25 mg/kg, route oral. Particulars: in vivo.
Series [14] is described as follows: Tmax in nude mouse at 25 mg/kg, po. It counts as ADME, organism-based. Particulars: in vivo.
The nature of series [15]: Oral bioavailability in nude mouse at 25 mg/kg. It counts as ADME, organism-based. Particulars: in vivo.
The target of series [16] is Serine/threonine-protein kinase PAK 4 (Homo sapiens, UniProt O96013). Nature of the series: Inhibition of human recombinant GST-tagged PAK4 kinase domain (295 to 591 residues) expressed in baculovirus expression system assessed as suppression of phosphorylation of coumarin/fluorescein-labelled FRET peptide substrate at Ser/Thr19 residues preincubated with substrate for 10 mins followed by enzyme addition measured after 60 mins by Z-Lyte assay.

Molecules are shown by their SMILES. Converted amounts (≈) assume the structure as drawn.

Chain of Serine/threonine-protein kinase PAK 1 (Q13153 whole entry, the tested form may be a part): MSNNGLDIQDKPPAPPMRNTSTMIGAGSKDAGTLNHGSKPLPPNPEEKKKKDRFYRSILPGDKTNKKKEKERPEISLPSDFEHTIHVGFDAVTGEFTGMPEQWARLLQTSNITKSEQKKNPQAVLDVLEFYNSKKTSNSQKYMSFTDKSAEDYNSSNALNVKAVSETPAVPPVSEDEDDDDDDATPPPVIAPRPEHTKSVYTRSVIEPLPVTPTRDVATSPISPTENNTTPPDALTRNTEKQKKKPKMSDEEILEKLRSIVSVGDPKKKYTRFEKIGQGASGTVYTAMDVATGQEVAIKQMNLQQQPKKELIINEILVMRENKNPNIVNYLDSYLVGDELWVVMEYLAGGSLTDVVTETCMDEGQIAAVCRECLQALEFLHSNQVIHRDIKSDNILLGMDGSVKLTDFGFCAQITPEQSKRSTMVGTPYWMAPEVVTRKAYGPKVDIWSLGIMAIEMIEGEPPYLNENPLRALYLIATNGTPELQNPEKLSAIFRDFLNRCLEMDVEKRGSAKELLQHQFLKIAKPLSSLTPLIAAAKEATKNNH
Chain of Serine/threonine-protein kinase PAK 4 (O96013 whole entry, the tested form may be a part): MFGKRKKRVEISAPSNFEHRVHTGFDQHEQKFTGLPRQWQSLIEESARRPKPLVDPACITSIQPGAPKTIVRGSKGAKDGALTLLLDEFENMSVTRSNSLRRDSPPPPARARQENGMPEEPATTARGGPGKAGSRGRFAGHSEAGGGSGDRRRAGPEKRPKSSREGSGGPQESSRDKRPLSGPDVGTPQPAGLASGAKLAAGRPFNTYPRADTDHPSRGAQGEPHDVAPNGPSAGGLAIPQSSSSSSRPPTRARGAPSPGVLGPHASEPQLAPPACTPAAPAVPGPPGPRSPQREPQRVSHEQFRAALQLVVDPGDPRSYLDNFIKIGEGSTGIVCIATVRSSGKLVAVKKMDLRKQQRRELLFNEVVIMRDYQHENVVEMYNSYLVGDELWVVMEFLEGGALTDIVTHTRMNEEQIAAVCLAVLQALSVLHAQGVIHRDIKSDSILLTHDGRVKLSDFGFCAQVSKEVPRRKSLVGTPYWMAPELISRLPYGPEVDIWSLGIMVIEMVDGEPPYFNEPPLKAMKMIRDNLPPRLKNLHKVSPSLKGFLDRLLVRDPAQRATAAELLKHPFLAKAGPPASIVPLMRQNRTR

With `C[C@H](Nc1nccc(Nc2cc([C@@H]3C[C@H]3F)[nH]n2)n1)c1ccc2[nH]ccc2n1`, the Papp A→B in series [1] is 4.2 ×10⁻⁶ cm/s. Moreover, the fraction unbound in [2] is 0.047. Also, the solubility kinetic in series [3] is 73 µM (≈ 27.6 µg/mL).
Regarding `CC[C@H](Nc1nccc(Nc2cc(C3CC3)[nH]n2)n1)c1ccc2[nH]ccc2n1`, the Ki in series [4] turned out to be 23 nM. Also, in series [5], the IC50 was determined as 180 nM.
Taken in the same sequence, the figures for `C[C@H](Nc1nccc(Nc2cc(C3CC3)[nH]n2)n1)c1ccc2[nH]cc(Cl)c2n1` were 6 nM and 160 nM.
For `C[C@H](Nc1nccc(Nc2cc(C3CC3)[nH]n2)n1)c1cc2cc[nH]c2cn1`, the IC50 in series [5] was 68 nM. For the same molecule, the Papp A→B in [1] came to 0.9 ×10⁻⁶ cm/s. In addition, the fraction unbound in series [2] is 0.039. In addition, in [3], the solubility kinetic is 73 µM (≈ 26.3 µg/mL).
With `C[C@@H](c1ccc2[nH]ccc2n1)N(C)c1nccc(Nc2cc(C3CC3)[nH]n2)n1`, the Ki in series [4] was found to be 18 nM. Also, the IC50 in series [5] is listed as 240 nM.
With `c1cc(Nc2cc(C3CC3)[nH]n2)nc(NCc2ccc3nccn3c2)n1`, in series [4], the Ki is 360 nM.
Turning to `O=C(O)C[C@H](O)C[C@H](O)/C=C/c1c(C2CC2)nc2ccccc2c1-c1ccc(F)cc1` [PITAVASTATIN], in the series with Hepatocyte, the “fold change (FC)” value worked out at 6.6.
With `C[C@H](Nc1nccc(Nc2cc(C3CC3)[nH]n2)n1)c1nc2cc[nH]c2cc1F`, the Ki in series [4] was 4 nM. The concentration for half-maximal inhibition (IC50) in [5] is listed as 57 nM. Also, in series [1], the Papp A→B is 8.3 ×10⁻⁶ cm/s. The molecule also returned a fraction unbound in [2] of 0.014. For the same molecule, the solubility kinetic in series [3] was 58 µM (≈ 21.9 µg/mL).
On to `C[C@H](Nc1nccc(Nc2cc(C3CC3)[nH]n2)n1)c1nc2cc[nH]c2cc1Cl`, for which the Ki in series [4] was 119 nM. Further, the IC50 in series [5] came to 190 nM.
As to `C[C@H](Nc1nccc(Nc2cc(C3CC3)[nH]n2)n1)c1ccc2[nH]ccc2c1`, the “fold change (FC)” value in the series on Hepatocyte stood at 1.8. Moreover, the IC50 in series [5] is recorded as 120 nM. In addition, the Papp A→B in series [1] worked out at 2 ×10⁻⁶ cm/s; in the series on MDR1 (human) [9] it was 0.5 ×10⁻⁶ cm/s. Besides, in [2], the fraction unbound was 0.008. The solubility kinetic in series [3] was 69 µM (≈ 24.8 µg/mL). Also, in series [6], the Vd was found to be 4.5 L/kg. In series [7], this molecule displayed a clearance of 160 mL/min/kg. In the series on Mus musculus, the CL free worked out at 20000 mL/min/kg. In [8], this molecule gave a half-life of 19.2 min. Besides, in the series with MDR1 (human) [10], the apparent permeability from basolateral to apical (Papp B→A) is 14.6 ×10⁻⁶ cm/s. Besides, the efflux ratio with MDR1 (human) [11] came out at 27.7. This molecule also showed a logD in [12] of 3.7.
For the molecule `C[C@H](Nc1nccc(Nc2cc([C@H]3C[C@@H]3F)[nH]n2)n1)c1ccc2[nH]ccc2n1`, the Papp A→B in series [1] is 3.7 ×10⁻⁶ cm/s. The solubility kinetic in [3] turned out to be 104 µM (≈ 39.4 µg/mL).
As to `C[n+]1ccc(-c2ccccc2)cc1`, the “fold change (FC)” value in the series with Hepatocyte is recorded as 4.7.
Take `C[C@H](Nc1nccc(Nc2cc(C3CC3)[nH]n2)n1)c1ccc2[nH]ccc2n1`: the “fold change (FC)” value with Hepatocyte came to 2.7. In [4], the Ki turned out to be 32 nM. Further, the IC50 in series [5] is recorded as 51 nM. Also, the results for the apparent permeability from apical to basolateral (Papp A→B) (in series [1]; in the series on MDR1 (human) [9]) were 4.3 ×10⁻⁶ cm/s and 0.2 ×10⁻⁶ cm/s, respectively. In series [2], this molecule had a fraction unbound of 0.045. Further, the solubility kinetic in [3] was determined as 133 µM (≈ 47.9 µg/mL). In series [13], this molecule had a Cmax of 4.7 µM. For the same molecule, in series [14], the Tmax was 34.8 min. For the same molecule, the Vd in series [6] is 1.65 L/kg. The clearance in series [7] came to 48 mL/min/kg. Besides, the CL free in the series with Mus musculus was 1067 mL/min/kg. Also, the half-life in series [8] is 37.8 min. The molecule also yielded a bioavailability in series [15] of 4.8%. Besides, in the series on MDR1 (human) [10], the Papp B→A worked out at 9.8 ×10⁻⁶ cm/s. Besides, in the series on MDR1 (human) [11], the efflux ratio was 59. In series [12], this molecule displayed a logD of 2.7.
On to `c1cc(Nc2cc(C3CC3)[nH]n2)nc(NCc2ccc3[nH]ccc3n2)n1`, for which the inhibition constant Ki in series [4] amounted to 120 nM; in series [16], 505 nM.
Regarding `CCCCNC(=O)NS(=O)(=O)c1ccc(C)cc1` [TOLBUTAMIDE], in the series with Hepatocyte, the “fold change (FC)” value is reported as 1.4.
In the case of `C[C@@H](Nc1nccc(Nc2cc(C3CC3)[nH]n2)n1)c1ccc2[nH]ccc2n1`, the IC50 in series [4] worked out at 685 nM.
As for `C[C@H](Nc1nccc(Nc2cc(C3CC(F)(F)C3)[nH]n2)n1)c1ccc2[nH]ccc2n1`, in series [4], the Ki is 68 nM. Further, the concentration for half-maximal inhibition (IC50) in series [5] came to 250 nM.

Usually Papp A→B stands for the apparent permeability from the apical to the basolateral side of a cell layer. By fraction unbound is commonly meant the share of the substance not bound to proteins or other matrix. In general, Ki refers to the equilibrium dissociation constant of an inhibitor or competing ligand from its target. One may read the IC50 as the midpoint of a concentration-inhibition curve. In general, clearance refers to the volume of plasma or blood freed of the substance per unit of time. As a reminder, the half-life is the time in which the quantity being followed falls by half. A higher half-life goes with slow loss. By Papp B→A is commonly meant the apparent permeability from the basolateral to the apical side of a cell layer. As a reminder, the efflux ratio is a quotient of directional permeabilities that is used to spot active efflux. The logD is lipophilicity at a set pH, counting ionised and neutral species. For orientation: Cmax means the peak of the concentration-time curve. The Tmax is the time from dosing to the highest level. For orientation: bioavailability means dose-corrected exposure relative to a reference, in per cent. The low end stands for poor availability, the high end for good availability.

Source of the values: ChEMBL document CHEMBL3822406, “Synthesis and evaluation of a series of 4-azaindole-containing p21-activated kinase-1 inhibitors” (Bioorg Med Chem Lett, 2016).
